Data as given in patent US12501917B2, “Methods and compositions for treating intestinal disorder” (MARS, INCORPORATED, priority 2019, dated 2025).

Tested on: canine fecal microbiome
Details: dog, in vivo

Cc1ncc([N+](=O)[O-])n1CCO [metronidazole]
dysbiosis (community evenness, distance from healthy controls, potential pathogens): exacerbated dysbiosis
